Experiments:
[1] = tested on: orthotopic PANC-1/Luc+ pancreatic tumor BALB/c nude mice; assay: PET/CT imaging of orthotopic pancreatic tumor model; format: in vivo; settings: L4 at 24 h post-injection; FDG at 1 h post-injection, same mouse
Method: The establishment of the tumor in the orthotopic pancreatic tumor models was confirmed at 13 days post-inoculation of PANC-1/Luc+ cells into the pancreas tail with bioluminescence imaging using D-luciferin (60 mg/kg). The next day, [^18F]FDG-PET/CT (FDG: fluorodeoxyglucose) imaging was performed at 1 h post-injection (7.4 MBq/mouse) for 20 min.
Two days after [^18F]FDG imaging, [^124I]L4 (6.3-9.3 MBq in 200 μL PBS) was administered into the tail vein of the same mouse and PET/CT images were acquired at 1, 4, and 24 h post-injection.

[2] = Ex vivo cleavage in liver homogenate
Method: Ex vivo studies to determine the cleavage rates of the examined radiotracers in different organs were performed using the homogenates of mouse tissues collected from CT26 tumor models. Liver, spleen, and tumor tissues were collected and weighted. After the addition of ice-cold PBS solution at a ratio of 1:1 (w/w), the tissues were homogenized with a homogenizer (Ultra-Turrax, IKA, Selangor, Malaysia) under ice-cold conditions. The crude homogenate was then centrifuged at 2,000 g, and the sediment was discarded. Each supernatant (300 μL), referred to as tissue homogenate, was immediately mixed with each radiotracer (3.7 MBq) dissolved in PBS with 10% DMSO. The reaction was then performed upon shaking at 550 rpm at 37° C., and the hydrolysis rate of each radiotracer was measured by radio-TLC for up to 24 h. […] Urine and fecal samples were collected separately at 0.5, 1, 2, 4, 8, 16, and 24 h post-injection, and their radioactivity was measured with a dose calibrator (CRC-Ultra; Capintec, Florham Park, NJ, USA). […] The same urine sample was further analyzed by HPLC [Luna C8 column (4.6×50 mm, 5 μm), 0.1% TFA/H2O (solventA), and 0.1% TFA/acetonitrile (solvent B)] using a gradient of 10-100% B in 5 min and 10% B for 27 min, which continued for up to 45 min at a flow rate of 1 mL/min.

[3] = tested on: porcine liver esterase; assay: Esterase enzymatic assay (radio-TLC cleavage); format: in vitro ADME; settings: 37 C
Method: The in vitro metabolism studies were performed using 25 U/mL solutions of porcine liver esterase in PBS. [^131I]HIB (1), [^131I]IPH (2), or [^131I]HIB-ether (3) (3.7 MBq each) was also dissolved in PBS with 10% DMSO. Esterase (2.5 U) was then added to each radiotracer solution, and the solution was gently shaken at 37° C.
With these hypotheses in mind, we performed systematic mechanistic studies. First, we carried out an esterase enzymatic assay. All three radiotracers, [^131I]HIB, [^131I]IPH, and [^131I]HIB-ether, were incubated separately with esterase (Sigma Aldrich, St. Louis, MO, USA) at 37° C. in a 10% DMSO/PBS mixture, and the progress of the reactions was monitored for 24 h by radio-TLC (FIG. 3A).

[4] = In vitro metabolism with mouse liver S9 fraction; format: in vitro ADME; settings: 4 h incubation
Method: (§1) For the in vitro metabolic studies with mouse liver S9 fraction and microsome, 1-3 (3.7 MBq) were dissolved in PBS with 10% DMSO and mixed with the mouse liver S9 fraction (0.2 mg in 10 μL) or the microsome (0.2 mg in 10 μL) with NADPH (0.25 mM). The reaction was performed upon shaking at 550 rpm at 37° C. The hydrolysis rate of each radiotracer was measured by radio-TLC for up to 24 h.

[5] = In vitro metabolism with mouse liver microsome; format: in vitro ADME; settings: 4 h incubation
Method: as §1

[6] = Ex vivo cleavage in spleen homogenate; format: in vitro ADME, mouse; settings: 4 h and 24 h
Excerpt: Liver, spleen, and tumor tissues were collected and weighted.

[7] = Lipophilicity (log P) of the radiotracer; format: physicochemical
[8] = tested on: normal BALB/c mice; assay: Urinary and fecal excretion of radioactive metabolites; format: in vivo, mouse

Compound | tumor detection in PET image [1] | cleavage ([2]; 4 h) | cleavage ([2]; 24 h) | cleavage percentage ([3]; 4 h) | cleavage percentage ([3]; 24 h) | cleavage percentage [4] | cleavage percentage [5] | cleavage rate lower than in the liver [6] | log P [7] | radioactivity in the feces relative to that in urine ([8]; after i.v. [131I]HIB-liposome) | metabolite found in urine ([8]; urine 3 h post-injection, radio-TLC and HPLC)
fluorodeoxyglucose [[^18F]FDG] | the tumor could barely be detected |  |  |  |  |  |  |  |  |  | 
CCCCCCCCCCCCCCCCOc1ccc(I)cc1 [[^131I]HIB-ether, 1-(hexadecyloxy)-4-[^124/131I]iodobenzene] |  | 23% | 25% | 15.9% | 20.3% | 19.3% | 16.0% |  |  |  | 
CCCCCCCCCCCCCCCCC(=O)Oc1ccc([131I])cc1 [[^131I]IPH, 4-[^124/131I]iodophenyl heptadecanoate] |  | ~75% | ~88% |  |  | 91.3% | 87.3% | ~18% |  |  | 
CCCCCCCCCCCCCCCCOC(=O)c1ccc([131I])cc1 [[^131I]HIB] |  | ~75% | ~88% |  |  | 89.7% | 85.3% | ~18% | 2.19±0.04 | less than 5% | 4-[^131I]iodobenzoic acid

Reference: US20240336632A1, “NOVEL COMPOUND COMPRISING ESTER GROUP AND USES THEREOF” (priority 2021, published 2024)
